The text below walks through data of patent US20050059669A1, “M-substituted benzoic acid derivatives having integrin alpha v beta 3 antagonistic activity” (priority 1999, published 2005).

For test [1], the target named is T1, integrin αvβ3 (vitronectin receptor purified from the human placenta) (Homo sapiens, UniProt P05106+P06756).
T1 construct: a vitronectin receptor (protein content: 118 mg/ml) purified from the human placenta; from tissue; host or cells: human placenta
In words: αvβ3 binding assay (vitronectin-vitronectin receptor binding assay). To be noted: vitronectin binding to coated human placenta vitronectin receptor; read-out: integrin αvβ3 antagonistic activity (IC50). The method, then:
Integrin αvβ3 antagonistic activity was first measured in a vitronectin-vitronectin receptor binding assay system in accordance with the method of Kouns et al. (W. C. Kouns, D. Kirchhofer, P. Hadvary, A. Edenhofer, T. Weller, G. Pfenninger, H. R. Baumgartner, L. K. Jennings and B. Steiner, Blood, 80, 2539-2547 (1992)). […] A 0.1 M citric acid buffer (pH 4.3) containing 0.05% NaN3 was added in an amount of 50 μl/well to stop the reaction, followed by the measurement of the absorbance at 415 nm with a microplate reader (MTP 32, Corona Electric) (reference: 675 nm). The total binding was defined as the absorbance after a reaction using 50 μl of TBS-Tween instead of the test compound, and the non-specific binding (100% inhibition) was defined as the absorbance after a reaction using 50 μl of TBS-Tween containing 2×10^−3 M RGDS. The inhibition was calculated by the following equation: [formula]
IC50 was determined from a primary regression line of the logarithm of each concentration of the test compound and the logarithm of (100−inhibition)/inhibition.

The target in the next test is GP IIb/IIIa (Homo sapiens, UniProt P05106+P08514). In words: GP IIb/IIIa antagonistic activity (method of Pharmacological Test 2 in WO 94/21599). In kind it is binding. The method, then:
GP IIb/IIIa antagonistic activity was measured for the compounds according to the present invention. The measurement of the GP IIb/IIIa antagonistic activity was carried out according to the method described in Pharmacological Test 2 in WO 94/21599. As a result, both the compounds prepared in Examples 3 and 6 had significant GP IIb/IIIa antagonistic activity. In particular, the IC50 value of the compound prepared in Example 3 was 2.0 nM.

Test [2] deals with human vascular smooth muscle cells. In words: Inhibitory activity against adhesion of human vascular smooth muscle cells to vitronectin. The test is classed as cell-based. As for the experimental part: The adhesion of human vascular smooth muscle cells to immobilized human vitronectin was measured in accordance with the method of Liaw et al. (Liaw L, Almeida M, Hart C E, Schwartz S M, and Giachelli C M, Circulation Research, 74 (2), 214-224 (1994)).
A Dulbecco's phosphate buffer (Dulbecco's PBS(−), Nissui Pharmaceutical Co., Ltd.) solution of human plasma-derived vitronectin (CALBIOCHEM) adjusted to a concentration of 4 μg/ml was first added to wells (50 μl/well) of a microplate (Maxisorp, Nunc), and a reaction for immobilization was allowed to proceed at 4° C. overnight. After washing twice with 150 μl of Dulbecco's phosphate buffer, a Dulbecco's phosphate buffer containing 10 mg/ml of bovine serum albumin (SIGMA) was added, followed by blocking at 37° C. for one hr. […]
Next, 50 μl of a Dulbecco's modified Eagle's basal medium containing 0.1% of bovine serum albumin with a medicament added thereto was added to the wells of the human vitronectin-coated assay microplate, followed by pre-cultivation under 5% carbon dioxide at 37° C. for 10 min. […] The absorbance of the microplate thus obtained was measured at 595 nm. […] The inhibition was calculated by the following equation. IC50 was determined from a primary regression line of the logarithm of each concentration of the test compound and the logarithm of (100−inhibition)/inhibition. […]

T1 sequence (P06756 31-889 limits assumed): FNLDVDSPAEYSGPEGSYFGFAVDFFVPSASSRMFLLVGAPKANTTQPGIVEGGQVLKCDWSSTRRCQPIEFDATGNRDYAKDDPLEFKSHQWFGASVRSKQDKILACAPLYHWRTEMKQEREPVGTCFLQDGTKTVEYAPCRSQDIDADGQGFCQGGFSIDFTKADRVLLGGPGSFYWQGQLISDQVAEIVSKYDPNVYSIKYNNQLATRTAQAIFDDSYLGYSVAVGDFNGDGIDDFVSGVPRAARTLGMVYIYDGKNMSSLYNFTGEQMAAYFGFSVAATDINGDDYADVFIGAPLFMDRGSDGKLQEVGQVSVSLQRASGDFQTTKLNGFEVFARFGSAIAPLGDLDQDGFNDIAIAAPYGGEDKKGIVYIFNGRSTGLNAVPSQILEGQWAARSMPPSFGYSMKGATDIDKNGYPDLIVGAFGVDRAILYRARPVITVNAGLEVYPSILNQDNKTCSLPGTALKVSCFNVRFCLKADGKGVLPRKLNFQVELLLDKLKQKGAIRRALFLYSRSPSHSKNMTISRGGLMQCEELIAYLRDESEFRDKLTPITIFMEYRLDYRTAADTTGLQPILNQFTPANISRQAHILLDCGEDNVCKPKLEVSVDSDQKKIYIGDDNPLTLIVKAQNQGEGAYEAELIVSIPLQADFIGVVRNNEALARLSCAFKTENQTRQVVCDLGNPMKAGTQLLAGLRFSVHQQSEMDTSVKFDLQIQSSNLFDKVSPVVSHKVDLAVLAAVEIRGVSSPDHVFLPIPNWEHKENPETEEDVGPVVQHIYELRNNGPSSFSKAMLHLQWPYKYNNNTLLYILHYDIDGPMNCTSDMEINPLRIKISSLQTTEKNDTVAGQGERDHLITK
T1 sequence (P06756 891-1048 partner limits assumed): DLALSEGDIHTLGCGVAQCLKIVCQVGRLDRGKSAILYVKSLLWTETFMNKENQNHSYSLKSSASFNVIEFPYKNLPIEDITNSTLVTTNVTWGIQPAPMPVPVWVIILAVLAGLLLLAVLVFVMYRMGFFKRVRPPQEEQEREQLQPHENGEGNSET
T1 sequence (P05106 27-788): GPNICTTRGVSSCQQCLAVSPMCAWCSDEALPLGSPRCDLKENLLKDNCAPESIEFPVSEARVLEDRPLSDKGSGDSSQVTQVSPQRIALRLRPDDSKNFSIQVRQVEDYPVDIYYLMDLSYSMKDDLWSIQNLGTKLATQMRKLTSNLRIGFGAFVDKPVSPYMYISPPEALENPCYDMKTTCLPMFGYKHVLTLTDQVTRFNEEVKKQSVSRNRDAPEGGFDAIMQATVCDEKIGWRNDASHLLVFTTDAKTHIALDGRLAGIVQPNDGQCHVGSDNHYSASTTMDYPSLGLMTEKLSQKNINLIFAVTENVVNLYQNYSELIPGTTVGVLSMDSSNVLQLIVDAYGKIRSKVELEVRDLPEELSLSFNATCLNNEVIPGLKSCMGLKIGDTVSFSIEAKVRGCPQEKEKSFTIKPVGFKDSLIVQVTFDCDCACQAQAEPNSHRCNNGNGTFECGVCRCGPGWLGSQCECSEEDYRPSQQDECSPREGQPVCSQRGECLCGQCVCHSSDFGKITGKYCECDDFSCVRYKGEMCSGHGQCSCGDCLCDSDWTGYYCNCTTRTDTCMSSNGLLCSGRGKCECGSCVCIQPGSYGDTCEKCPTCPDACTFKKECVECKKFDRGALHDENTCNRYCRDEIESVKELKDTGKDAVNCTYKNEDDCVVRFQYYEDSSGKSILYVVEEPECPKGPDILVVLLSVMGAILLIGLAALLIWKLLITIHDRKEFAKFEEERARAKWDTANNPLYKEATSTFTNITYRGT
Chain of GP IIb/IIIa (P08514 32-887 limits assumed): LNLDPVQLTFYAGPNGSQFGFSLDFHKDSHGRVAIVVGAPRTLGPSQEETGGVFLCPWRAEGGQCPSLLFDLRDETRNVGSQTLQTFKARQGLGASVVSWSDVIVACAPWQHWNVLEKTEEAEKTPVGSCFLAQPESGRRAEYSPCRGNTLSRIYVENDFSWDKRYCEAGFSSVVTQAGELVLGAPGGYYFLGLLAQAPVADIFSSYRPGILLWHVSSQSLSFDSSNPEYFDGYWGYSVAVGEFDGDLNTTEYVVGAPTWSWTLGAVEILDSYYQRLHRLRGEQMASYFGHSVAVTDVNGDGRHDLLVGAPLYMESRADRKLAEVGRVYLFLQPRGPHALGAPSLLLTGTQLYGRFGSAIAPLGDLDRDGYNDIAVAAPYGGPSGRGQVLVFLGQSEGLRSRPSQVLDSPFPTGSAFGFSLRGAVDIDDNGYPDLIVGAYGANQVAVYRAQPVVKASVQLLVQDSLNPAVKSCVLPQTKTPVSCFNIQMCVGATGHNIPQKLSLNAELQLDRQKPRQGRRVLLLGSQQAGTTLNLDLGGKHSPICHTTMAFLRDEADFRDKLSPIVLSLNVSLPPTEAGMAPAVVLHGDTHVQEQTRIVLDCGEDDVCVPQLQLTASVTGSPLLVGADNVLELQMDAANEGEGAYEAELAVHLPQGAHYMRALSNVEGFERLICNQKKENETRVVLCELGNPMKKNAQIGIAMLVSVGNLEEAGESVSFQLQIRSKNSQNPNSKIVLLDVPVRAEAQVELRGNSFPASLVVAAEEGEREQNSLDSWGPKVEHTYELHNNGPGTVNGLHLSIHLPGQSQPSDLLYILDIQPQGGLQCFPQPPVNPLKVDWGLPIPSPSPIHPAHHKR
Chain of GP IIb/IIIa (P08514 891-1039 partner limits assumed): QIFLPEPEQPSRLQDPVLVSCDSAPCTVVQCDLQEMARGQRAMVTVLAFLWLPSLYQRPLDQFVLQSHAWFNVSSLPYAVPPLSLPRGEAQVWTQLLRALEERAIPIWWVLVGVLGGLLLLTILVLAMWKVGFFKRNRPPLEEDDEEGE
Chain of GP IIb/IIIa (P05106 27-788): as the sequence (P05106 27-788) above

Take `O=C(NC[C@H](NS(=O)(=O)c1ccccc1)C(=O)O)c1cccc(N2CCN(C3=NCCCN3)CC2)c1` [Example 3, (2S)-Benzenesulfonylamino-3-[3-{4-(1,4,5,6-tetrahydropyrimidin-2-yl)piperazin-1-yl}benzoylamino]-propionic acid]: the IC50 is 1.3 nM in test [1] and 2 nM on GP IIb/IIIa.

Turning to `O=C(NC[C@H](NS(=O)(=O)c1ccccc1)C(=O)O)c1cccc(N2CCC(NC3=NCCCN3)CC2)c1` [Example 6, (2S)-Benzenesulfonylamino-3-[3-{4-(1,4,5,6-tetrahydropyrimidin-2-ylamino)piperidin-1-yl}benzoylamino]propionic acid], the “GP IIb/IIIa antagonistic activity” value on GP IIb/IIIa (result in words) was “significant”.

As for `O=C(NC[C@H](NS(=O)(=O)c1ccccc1)C(=O)O)c1ccc(F)c(N2CCC(NC3=NCCCN3)CC2)c1` [Example 9, (2S)-Benzenesulfonylamino-3-[4-fluoro-3-{4-(1,4,5,6-tetrahydropyrimidin-2-ylamino)piperidin-1-yl}-benzoylamino]propionic acid], in test [1], the concentration for half-maximal inhibition (IC50) came to 2 nM.

Regarding `O=C(NC[C@H](NS(=O)(=O)c1ccccc1)C(=O)O)c1cc(N2CCC(NC3=NCCCN3)CC2)cc(C(F)(F)F)c1` [Example 27, (2S)-Benzenesulfonylamino-3-[3-{4-(1,4,5,6-tetrahydropyrimidin-2-ylamino)piperidin-1-yl}-5-(trifluoromethyl)benzoylamino]propionic acid], the midpoint of inhibition in test [2] (immobilized human vitronectin), the IC50, lay at 96 nM. The “cell adhesion inhibitory activity” value in test [2] (result in words) is “potent”.

As a reminder, the IC50 is the concentration needed to halve the response being measured.
